# Source: patent US20230012368A1 (Hoffmann-La Roche Inc., priority 2018, published 2023)
# Counter-ions that a name gives are not always drawn.
# System: Acinetobacter baumannii ATCC 17978
# Experiment: Antimicrobial susceptibility testing: 90% growth inhibitory concentration (IC90) determination
# Format: cell-based
# Conditions: 90% growth inhibitory concentration; Acinetobacter baumannii ATCC17978; Iso-Sensitest broth, OD 600 nm over 16h; read-out: ATCC17978 IC90
# In short: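 Growth of the Acinetobacter baumannii strain was followed by optical density at 600 nm every 20 minutes for 16h at 35±2° C. Inoculum was ~5×10^(5) CFU/ml in Iso-Sensitest medium, with twofold compound dilutions (e.g. 50 to 0.097 μM final). The 90% inhibitory concentration was derived in log-phase growth.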
row,SMILES,IC90
1,"CCc1cc(Nc2nccn3c(-c4ccc(Oc5ccc(C(=O)NCCCN)cn5)c(F)c4F)cnc23)ccc1C(=O)NC [Example 507, N-(3-aminopropyl)-6-[4-[8-[3-ethyl-4-(methylcarbamoyl)anilino]imidazo[1,2-a]pyrazin-3-yl]-2,3-difluoro-phenoxy]pyridine-3-carboxamide; formic acid]",500 nM
2,"CCc1cc(Nc2nccn3c(-c4ccc(OC)c(F)c4F)cnc23)ccc1C(=O)N[C@@H](CN)C(=O)OC [Example 308, methyl (2S)-3-amino-2-[[4-[[3-(2,3-difluoro-4-methoxyphenyl)imidazo[1,2-a]pyrazin-8-yl]amino]-2-ethylbenzoyl]amino]propanoate; hydrochloride]",660 nM

# Same assay, conditions: Acinetobacter baumannii, ATCC17978, 16 h, 90% growth inhibitory concentration; Acinetobacter baumannii ATCC17978; Iso-Sensitest broth, OD 600 nm over 16h; read-out: ATCC17978 IC90
row,SMILES,IC90
1,"CCc1cc(Nc2nccn3c(-c4ccc(Cl)c(F)c4F)cnc23)ccc1C(=O)NCC1CCNC1 (centres unmarked) [Example 277, 4-[[3-(4-chloro-2,3-difluorophenyl)imidazo[1,2-a]pyrazin-8-yl]amino]-2-ethyl-N-(pyrrolidin-3-ylmethyl)benzamide;hydrochlo-ride]",700 nM
2,"O=C(NCc1ccccn1)c1ccc(Nc2nccn3c(-c4ccc(OC(F)F)cc4)cnc23)cc1Cl [Example 111, 2-chloro-4-((3-(4-(difluoromethoxy)phenyl)imidazo[1,2-a]pyrazin-8-yl)amino)-N-(pyridin-2-ylmethyl)benzamide]",2100 nM
3,"COc1ccc(-c2cnc3c(Nc4ccc(C(=O)NCC5CCNCC5)c(C)c4)nccn23)cc1 [Example 211, 4-[[3-(4-methoxyphenyl)imidazo[1,2-a]pyrazin-8-yl]amino]-2-methyl-N-(piperidin-4-ylmethyl)benzamide;hydrochlo-ride]",640 nM
4,"Cc1cc(Nc2nccn3c(-c4ccc(OC(F)F)cc4)cnc23)ccc1C(=O)NCC1CCN(C(=N)N)CC1 [Example 24, N-((1-carbamimidoyl-piperidin-4-yl)methyl)-4-((3-(4-(difluoromethoxy)phenyl)imidazo[1,2-a]pyrazin-8-yl)amino)-2-methylbenzamide]",340 nM
5,"CCc1cc(Nc2nccn3c(-c4ccc(Oc5ncccn5)c(F)c4F)cnc23)ccc1C(=O)NCCCNC(=O)C1CCN(CC2CCNC2)CC1 (centres unmarked) [Example 545, N-(3-(4-((3-(2,3-difluoro-4-(pyrimidin-2-yloxy)phenyl)imidazo[1,2-a]pyrazin-8-yl)amino)-2-ethylbenzamido)propyl)-1-(pyrrolidin-3-ylmethyl)piperidine-4-carboxamide formate]",310 nM
6,"Cc1cc(Nc2nccn3c(-c4ccc(OC(F)F)cc4)cnc23)ccc1C(=O)N(C)CC(=O)N1CCN(C)CC1 [Example 170, 4-[[3-[4-(difluoromethoxy)phenyl]im-idazo[1,2-a]pyrazin-8-yl]amino]-N,2-dimethyl-N-[2-(4-methylpiperazin-1-yl)-2-oxoethyl]benzamide]",1900 nM
7,"Cc1cc(Nc2nccn3c(-c4ccc(Cl)c(F)c4F)cnc23)ccc1C(=O)NCCC1CCN(C)CC1 [Example 244, 4-[[3-(4-chloro-2,3-difluorophenyl)imidazo[1,2-a]pyrazin-8-yl]amino]-2-methyl-N-[2-(1-methylpiperidin-4-yl)ethyl]benzamide]",440 nM
8,"COc1ccc(-c2cnc3c(Nc4ccc(C(=O)N(C)CCCN)cc4)nccn23)cc1 [Example 33, N-(3-aminopropyl)-4-((3-(4-methoxyphenyl)imidazo [1,2-a]pyrazin-8-yl)amino)-N-methylbenzamide hydrochloride]",4900 nM
9,"COc1ccc(-c2cnc3c(Nc4ccc(C(=O)NCCCN5CCS(=O)(=O)CC5)c(C)c4)nccn23)cc1F [Example 36, N-[3-(1,1-dioxo-1,4-thiazinan-4-yl)propyl]-4-[[3-(3-fluoro-4-methoxy-phenyl)imidazo[1,2-a]pyrazin-8-yl]amino]-2-methyl-benzamide; 2,2,2-trifluoroacetic acid]",460 nM
10,"COc1ccc(-c2cnc3c(Nc4ccc(C(=O)N(CCN5CCNCC5)CC(F)(F)F)c(C)c4)nccn23)cc1F [Example 172, 4-[[3-(3-fluoro-4-methoxyphenyl)imidazo[1,2-a]pyrazin-8-yl]amino]-2-methyl-N-(2-piperazin-1-ylethyl)-N-(2,2,2-trifluoroethyl)benzamide; hy-drochloride]",6200 nM

# Other lines, results leading:
row,IC90,SMILES
1,360 nM,"CCc1cc(Nc2nccn3c(-c4ccc(OC)c(F)c4F)cnc23)ccc1C(=O)NCC(O)CN1CCCC1 (centres unmarked) [Example 304, 4-[[3-(2,3-difluoro-4-methoxyphenyl)imidazo[1,2-a]pyrazin-8-yl]amino]-2-ethyl-N-(2-hydroxy-3-pyrrolidin-1-ylpropyl)benzamide]"
2,300 nM,"CCc1cc(Nc2nccn3c(-c4ccc(OC)c(F)c4F)cnc23)ccc1C(=O)N[C@H](C)CNC(=O)[C@@H](N)CCCCN [Example 465, N-[(1R)-2-[[(2S)-2,6-diaminohexanoyl]amino]-1-methyl-ethyl]-4-[[3-(2,3-difluoro-4-methoxy-phenyl)imidazo[1,2-a]pyrazin-8-yl]amino]-2-ethyl-benzamide]"
3,500 nM,"CCc1cc(Nc2nccn3c(-c4ccc(OC)c(F)c4F)cnc23)ccc1C(=O)N[C@@H](CC)CN [Example 489, N-[(1S)-1-(aminomethyl)propyl]-4-[[3-(2,3-difluoro-4-methoxy-phenyl)imidazo[1,2-a]pyrazin-8-yl]amino]-2-ethyl-benzamide; formic acid]"
4,630 nM,"CCc1cc(Nc2nccn3c(-c4ccc(Oc5ccc(OC)cn5)c(F)c4F)cnc23)ccc1C(=O)NCCNC(=O)[C@H](N)CCCNC(=N)N [Example 447, N-[2-[[(2R)-2-amino-5-guanidino-pentanoyl]amino]ethyl]-4-[[3-[2,3-difluoro-4-[(5-methoxy-2-pyridyl)oxy]phenyl]imidazo [1,2-a]pyrazin-8-yl]amino]-2-ethyl-benzamide; formic acid]"
5,100 nM,"CCc1cc(Nc2nccn3c(-c4ccc(OCC#N)c(F)c4F)cnc23)ccc1C(=O)NCCNC(=O)[C@H](N)CCCNC(=N)N [Example 148, N-[2-[[(2R)-2-amino-5-guanidino-pentanoyl]amino]ethyl]-4-[[3-[4-(cyanomethoxy)-2,3-difluoro-phenyl]imidazo[1,2-a]pyrazin-8-yl]amino]-2-ethyl-benzamide formate]"
6,320 nM,"CCc1cc(Nc2nccn3c(-c4ccc(OC)c(F)c4F)cnc23)ccc1C(=O)NCC(O)CNC(=O)CC(O)CN (centres unmarked) [Example 411, N-(3-(4-amino-3-hydroxybutanamido)-2-hydroxypropyl)-4-((3-(2,3-difluoro-4-methoxyphenyl)imidazo[1,2-a]pyrazin-8-yl)amino)-2-ethylbenzamide hydrochloride]"
7,300 nM,"CCc1cc(Nc2nccn3c(-c4ccc(OC)c(F)c4F)cnc23)ccc1C(=O)NCC(=O)NCCN1CCC1 [Example 446, N-[2-[2-(azetidin-1-yl)ethylamino]-2-oxo-ethyl]-4-[[3-(2,3-difluoro-4-methoxy-phenyl)imidazo[1,2-a]pyrazin-8-yl]amino]-2-ethyl-benzamide; formic acid]"
8,660 nM,"CCc1cc(Nc2nccn3c(-c4ccc(Oc5ccccn5)c(F)c4F)cnc23)ccc1C(=O)N(C)C [Example 471, 4-[[3-[2,3-difluoro-4-(2-pyridyloxy)phenyl]imidazo [1,2-a]pyrazin-8-yl]amino]-2-ethyl-N,N-dimethyl-benzamide]"
9,410 nM,"CCc1cc(Nc2nccn3c(-c4ccc(Oc5ccccn5)c(F)c4F)cnc23)ccc1C(=O)NCCC(=O)N1CCN[C@H](CO)C1 [Example 475, 4-[[3-[2,3-difluoro-4-(2-pyridyloxy)phenyl]imidazo [1,2-a]pyrazin-8-yl]amino]-2-ethyl-N-[3-[(3S)-3-(hydroxymethyl)piperazin-1-yl]-3-oxo-propyl]benzamide]"
10,190 nM,"CCc1cc(Nc2nccn3c(-c4ccc(OC)c(F)c4F)cnc23)ccc1C(=O)NCC(O)CNC(=O)CCN (centres unmarked) [Example 146, N-[3-(3-aminopropanoyl-amino)-2-hydroxy-propyl]-4-[[3-(2,3-difluoro-4-methoxy-phenyl)imidazo[1,2-a]pyrazin-8-yl]amino]-2-ethyl-benzamide hydrochloride]"
11,410 nM,"CCc1cc(Nc2nccn3c(-c4ccc(OC)c(F)c4F)cnc23)ccc1C(=O)NCC(=O)NCCNC [Example 428, 4-[[3-(2,3-difluoro-4-methoxy-phenyl)imidazo[1,2-a]pyrazin-8-yl]amino]-2-ethyl-N-[2-[2-(methylamino)ethylamino]-2-oxo-ethyl]benzamide; formic acid]"
12,340 nM,"CCc1cc(Nc2nccn3c(-c4ccc(OC)c(F)c4F)cnc23)ccc1C(=O)NCCCNC(=O)C(CNC(=N)N)NC(=O)[C@@H](N)CCC(=O)O (mixture of isomers) [Example 155, (4S)-4-Amino-5-((1-((3-(4-((3-(2,3-difluoro-4-methoxyphenyl)imidazo[1,2-a]pyrazin-8-yl)amino)-2-ethylbenzamido)propyl)amino)-3-guanidino-1-oxopropan-2-yl)amino)-5-oxopentanoic acid trihydrochloride (Epimers 1:1)]"
13,600 nM,"CCc1cc(Nc2nccn3c(-c4ccc(Oc5ccc(F)cn5)c(F)c4F)cnc23)ccc1C(=O)NCCNC(=O)CCN [Example 425, N-[2-(3-aminopropanoylamino)ethyl]-4-[[3-[2,3-difluoro-4-[(5-fluoro-2-pyridyl)oxy]phenyl]imidazo [1,2-a]pyrazin-8-yl]amino]-2-ethyl-benzamide; formic acid]"
14,470 nM,"CCc1cc(Nc2nccn3c(-c4ccc(OC)c(F)c4F)cnc23)ccc1C(=O)NCC(O)CNC(=O)[C@@H](N)CCCN (mixture of isomers) [Example 413, rac-N-(3-((R)-2,5-diaminopentanamido)-2-hydroxypropyl)-4-((3-(2,3-difluoro-4-methoxyphenyl)imidazo[1,2-a]pyrazin-8-yl)amino)-2-ethylbenzamide dihydrochloride]"
